Laboratory results reported in PubChem BioAssay AID1918939 (Molecular Pharmacology Branch, DTP, NCI, 2023).

System: 653999-131-R-J2-PDC complex spheroid viability
Assay: Anticancer human tumor 653999-131-R-J2-PDC patient-derived lung adenocarcinoma cell line growth inhibition
Details: for IC50: curve of first compound; for viability, T/C: stronger effect = lower value
Summary of the method: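 Complex spheroids of tumor cells with HUVEC and human MSCs, exposed to iadademstat combined with other agents. Each agent tested in half-log steps from near clinical Cmax (else 10 microM top), DMSO ≤0.25%.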
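Also: spheroids exposed to agents for seven days before readout.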

Question: Which IC50 (second compound 0.1 µM) does the source give for `CC1(C)CCC(CN2CCN(c3ccc(C(=O)NS(=O)(=O)c4ccc(NCC5CCOCC5)c([N+](=O)[O-])c4)c(Oc4cnc5[nH]ccc5c4)c3)CC2)=C(c2ccc(Cl)cc2)C1` + NC1CCC(NC2CC2c2ccccc2)CC1 here?
Answer: 9.33 µM

Question: And the IC50 (second compound 0.316 µM)?
Answer: 8.46 µM

Question: What about the IC50 (second compound 1 µM) of the same compound?
Answer: 8.73 µM

Question: And the IC50 (second compound 3.16 µM)?
Answer: 7.79 µM

Question: What about the IC50 (second compound 10 µM) of the same compound?
Answer: > 10 µM

Question: What about the viability, T/C (second compound 0.1 µM, first compound 0.0316 µM) of the same compound?
Answer: 93.5%

Question: What about the viability, T/C (second compound 0.1 µM, first compound 0.1 µM) of the same compound?
Answer: 82.4%

Question: And the viability, T/C (second compound 0.1 µM, first compound 0.316 µM)?
Answer: 86.9%

Question: What about the viability, T/C (second compound 0.1 µM, first compound 1 µM) of the same compound?
Answer: 100%

Question: What about the viability, T/C (second compound 0.1 µM, first compound 3.16 µM) of the same compound?
Answer: 94.8%

Question: And the viability, T/C (second compound 0.1 µM, first compound 10 µM)?
Answer: 47.3%

Question: What about the viability, T/C (second compound 0.316 µM, first compound 0.0316 µM) of the same compound?
Answer: 76.8%

Question: What about the viability, T/C (second compound 0.316 µM, first compound 0.1 µM) of the same compound?
Answer: 89.7%

Question: What about the viability, T/C (second compound 0.316 µM, first compound 0.316 µM) of the same compound?
Answer: 97.7%

Question: And the viability, T/C (second compound 0.316 µM, first compound 1 µM)?
Answer: 92%

Question: And the viability, T/C (second compound 0.316 µM, first compound 3.16 µM)?
Answer: 92.2%

Question: What about the viability, T/C (second compound 0.316 µM, first compound 10 µM) of the same compound?
Answer: 43.2%

Question: And the viability, T/C (second compound 1 µM, first compound 0.0316 µM)?
Answer: 77%

Question: And the viability, T/C (second compound 1 µM, first compound 0.1 µM)?
Answer: 83.4%

Question: And the viability, T/C (second compound 1 µM, first compound 0.316 µM)?
Answer: 97.2%

Question: And the viability, T/C (second compound 1 µM, first compound 1 µM)?
Answer: 96.5%

Question: And the viability, T/C (second compound 1 µM, first compound 3.16 µM)?
Answer: 73.7%

Question: And the viability, T/C (second compound 1 µM, first compound 10 µM)?
Answer: 46.8%

Question: What about the viability, T/C (second compound 3.16 µM, first compound 0.0316 µM) of the same compound?
Answer: 97.9%

Question: And the viability, T/C (second compound 3.16 µM, first compound 0.1 µM)?
Answer: 88.1%

Question: And the viability, T/C (second compound 3.16 µM, first compound 0.316 µM)?
Answer: 102%

Question: What about the viability, T/C (second compound 3.16 µM, first compound 1 µM) of the same compound?
Answer: 94.2%

Question: What about the viability, T/C (second compound 3.16 µM, first compound 3.16 µM) of the same compound?
Answer: 74.5%

Question: What about the viability, T/C (second compound 3.16 µM, first compound 10 µM) of the same compound?
Answer: 43.2%

Question: And the viability, T/C (second compound 10 µM, first compound 0.0316 µM)?
Answer: 89%

Question: And the viability, T/C (second compound 10 µM, first compound 0.1 µM)?
Answer: 84.2%

Question: What about the viability, T/C (second compound 10 µM, first compound 0.316 µM) of the same compound?
Answer: 87.4%

Question: What about the viability, T/C (second compound 10 µM, first compound 1 µM) of the same compound?
Answer: 87.3%

Question: And the viability, T/C (second compound 10 µM, first compound 3.16 µM)?
Answer: 78.1%

Question: And the viability, T/C (second compound 10 µM, first compound 10 µM)?
Answer: 50%

Question: Which IC50 (second compound 0.1 µM) does the source give for `CCN(c1cc(-c2ccc(CN3CCOCC3)cc2)cc(C(=O)NCc2c(C)cc(C)[nH]c2=O)c1C)C1CCOCC1` + NC1CCC(NC2CC2c2ccccc2)CC1 here?
Answer: > 3 µM

Question: And the IC50 (second compound 0.316 µM)?
Answer: > 3 µM

Question: And the IC50 (second compound 1 µM)?
Answer: > 3 µM

Question: And the IC50 (second compound 3.16 µM)?
Answer: > 3 µM

Question: What about the IC50 (second compound 10 µM) of the same compound?
Answer: > 3 µM

Question: And the viability, T/C (second compound 0.1 µM, first compound 0.00949 µM)?
Answer: 97.1%

Question: And the viability, T/C (second compound 0.1 µM, first compound 0.03 µM)?
Answer: 93%

Question: And the viability, T/C (second compound 0.1 µM, first compound 0.0949 µM)?
Answer: 98.2%

Question: And the viability, T/C (second compound 0.1 µM, first compound 0.3 µM)?
Answer: 94.9%

Question: What about the viability, T/C (second compound 0.1 µM, first compound 0.949 µM) of the same compound?
Answer: 80.8%

Question: What about the viability, T/C (second compound 0.1 µM, first compound 3 µM) of the same compound?
Answer: 74.9%

Question: What about the viability, T/C (second compound 0.316 µM, first compound 0.00949 µM) of the same compound?
Answer: 80.6%

Question: And the viability, T/C (second compound 0.316 µM, first compound 0.03 µM)?
Answer: 88.9%

Question: What about the viability, T/C (second compound 0.316 µM, first compound 0.0949 µM) of the same compound?
Answer: 91.8%

Question: And the viability, T/C (second compound 0.316 µM, first compound 0.3 µM)?
Answer: 80.9%

Question: And the viability, T/C (second compound 0.316 µM, first compound 0.949 µM)?
Answer: 87.6%

Question: What about the viability, T/C (second compound 0.316 µM, first compound 3 µM) of the same compound?
Answer: 72.2%

Question: What about the viability, T/C (second compound 1 µM, first compound 0.00949 µM) of the same compound?
Answer: 77.6%

Question: And the viability, T/C (second compound 1 µM, first compound 0.03 µM)?
Answer: 101%

Question: And the viability, T/C (second compound 1 µM, first compound 0.0949 µM)?
Answer: 92.2%

Question: What about the viability, T/C (second compound 1 µM, first compound 0.3 µM) of the same compound?
Answer: 76.3%

Question: And the viability, T/C (second compound 1 µM, first compound 0.949 µM)?
Answer: 70.2%

Question: What about the viability, T/C (second compound 1 µM, first compound 3 µM) of the same compound?
Answer: 78.8%

Question: What about the viability, T/C (second compound 3.16 µM, first compound 0.00949 µM) of the same compound?
Answer: 96.1%

Question: What about the viability, T/C (second compound 3.16 µM, first compound 0.03 µM) of the same compound?
Answer: 94.5%

Question: What about the viability, T/C (second compound 3.16 µM, first compound 0.0949 µM) of the same compound?
Answer: 108%

Question: And the viability, T/C (second compound 3.16 µM, first compound 0.3 µM)?
Answer: 84%

Question: And the viability, T/C (second compound 3.16 µM, first compound 0.949 µM)?
Answer: 76.6%

Question: And the viability, T/C (second compound 3.16 µM, first compound 3 µM)?
Answer: 83.9%

Question: And the viability, T/C (second compound 10 µM, first compound 0.00949 µM)?
Answer: 87.7%

Question: What about the viability, T/C (second compound 10 µM, first compound 0.03 µM) of the same compound?
Answer: 84.9%

Question: And the viability, T/C (second compound 10 µM, first compound 0.0949 µM)?
Answer: 85.5%

Question: What about the viability, T/C (second compound 10 µM, first compound 0.3 µM) of the same compound?
Answer: 76%

Question: What about the viability, T/C (second compound 10 µM, first compound 0.949 µM) of the same compound?
Answer: 70%

Question: And the viability, T/C (second compound 10 µM, first compound 3 µM)?
Answer: 82.4%
